Results published in patent publication US20200010489A1, “ZWITTERIONIC SILATRANE-BASED MATERIAL AND ANTIFOULING SUBSTRATE CONTAINING SAME” (National Central University, priority 2018, published 2020).

Experiment: Chemical stability test of dry solid powders (FTIR, photographs)
Format: physicochemical
Conditions: RH=79%
Procedure: The dry solid powders of SBSi and SBSiT obtained above are placed in a laboratory environment (RH=79%, temperature=24° C.) for 24 hours, and the chemical stabilities of SBSi and SBSiT are examined by Fourier transform infrared spectroscopy (FTIR). Referring to FIG. 1A, signals is centered at 1050 and 1612 cm^−1 corresponding to Vas(SO3^−) and Vb(N(CH3)^+), respectively, so as to ensure that all samples have a sulfobetaine moiety.

CO[Si](CCC[N+](C)(C)CCCS(=O)(=O)[O-])(OC)OC [SBSi, sulfobetaine silane, reference compound]
FTIR spectra / absorption intensity after storage for 24 hours compared with before storage (dry solid powder, temperature=24° C.): significantly lower
appearance of solid after storage for 24 hours (hygroscopic properties) (moisture environment, 24° C.): clearly deliquescent
